In article PMC7794544, “Microbial production of multiple short-chain primary amines via retrobiosynthesis” (Nature Communications, 2021):

Assays:
VlmD [1] = biological target: T1, VlmD (Streptomyces viridifaciens, UniProt Q84F32); assay: HPLC (OPA derivatization) of iso-butylamine formed; LC-MS confirmation; type: biochemical; settings: 1 mM substrate, 0.1 mM PLP, 150 ug/mL enzyme, 50 mM potassium phosphate pH 7.5, 37 °C, 2 h
T1 construct: N-terminal His6 tag, codon-optimised gene in pET-22b(+), E. coli BL21(DE3), Talon resin

VlmD [2] = biological target: T1, VlmD; assay: HPLC (OPA derivatization) of n-butylamine formed; LC-MS confirmation; type: biochemical; settings: 1 mM substrate, 0.1 mM PLP, 150 ug/mL enzyme, 50 mM potassium phosphate pH 7.5, 37 °C, 2 h

T1 sequence (Q84F32 entry or part of it): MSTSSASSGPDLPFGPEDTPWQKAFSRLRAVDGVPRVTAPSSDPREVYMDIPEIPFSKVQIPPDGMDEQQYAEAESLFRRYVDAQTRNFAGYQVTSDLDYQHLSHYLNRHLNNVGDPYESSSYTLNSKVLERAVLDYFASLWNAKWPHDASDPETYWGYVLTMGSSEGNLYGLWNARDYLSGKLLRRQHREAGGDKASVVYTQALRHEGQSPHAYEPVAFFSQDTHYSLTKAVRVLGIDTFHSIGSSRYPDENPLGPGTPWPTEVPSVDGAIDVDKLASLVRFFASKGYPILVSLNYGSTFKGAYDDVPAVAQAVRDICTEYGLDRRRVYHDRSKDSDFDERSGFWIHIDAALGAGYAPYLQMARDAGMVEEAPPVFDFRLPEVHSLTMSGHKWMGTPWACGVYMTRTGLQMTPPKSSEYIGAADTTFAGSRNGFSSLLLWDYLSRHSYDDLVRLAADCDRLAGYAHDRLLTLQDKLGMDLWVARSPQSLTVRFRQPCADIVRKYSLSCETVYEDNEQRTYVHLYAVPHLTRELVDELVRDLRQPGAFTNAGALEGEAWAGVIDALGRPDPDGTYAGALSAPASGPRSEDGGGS

Compound	HPLC (OPA derivatization) of iso-butylamine formed; LC-MS confirmation (VlmD [1])	HPLC (OPA derivatization) of n-butylamine formed; LC-MS confirmation (VlmD [2])
CC(C)[C@H](N)C(=O)O [L-valine]	VlmD consistently showed activities toward L-valine, L-leucine, and L-isoleucine as in the previous study	–
CCC[C@H](N)C(=O)O [L-norvaline]	–	VlmD showed relatively high activity toward L-2-aminobutyrate, L-norvaline, L-valine
